The results in this text go back to patent US10787446B2 (GENENTECH, INC., priority 2015, dated 2020).

Each structure is given as a SMILES string.

The target of the test is T1, hNav1.7 and the β1 subunit (Homo sapiens, UniProt Q15858).
T1 construct: expressed in transfected cells
T1 sequence (Q15858 whole entry): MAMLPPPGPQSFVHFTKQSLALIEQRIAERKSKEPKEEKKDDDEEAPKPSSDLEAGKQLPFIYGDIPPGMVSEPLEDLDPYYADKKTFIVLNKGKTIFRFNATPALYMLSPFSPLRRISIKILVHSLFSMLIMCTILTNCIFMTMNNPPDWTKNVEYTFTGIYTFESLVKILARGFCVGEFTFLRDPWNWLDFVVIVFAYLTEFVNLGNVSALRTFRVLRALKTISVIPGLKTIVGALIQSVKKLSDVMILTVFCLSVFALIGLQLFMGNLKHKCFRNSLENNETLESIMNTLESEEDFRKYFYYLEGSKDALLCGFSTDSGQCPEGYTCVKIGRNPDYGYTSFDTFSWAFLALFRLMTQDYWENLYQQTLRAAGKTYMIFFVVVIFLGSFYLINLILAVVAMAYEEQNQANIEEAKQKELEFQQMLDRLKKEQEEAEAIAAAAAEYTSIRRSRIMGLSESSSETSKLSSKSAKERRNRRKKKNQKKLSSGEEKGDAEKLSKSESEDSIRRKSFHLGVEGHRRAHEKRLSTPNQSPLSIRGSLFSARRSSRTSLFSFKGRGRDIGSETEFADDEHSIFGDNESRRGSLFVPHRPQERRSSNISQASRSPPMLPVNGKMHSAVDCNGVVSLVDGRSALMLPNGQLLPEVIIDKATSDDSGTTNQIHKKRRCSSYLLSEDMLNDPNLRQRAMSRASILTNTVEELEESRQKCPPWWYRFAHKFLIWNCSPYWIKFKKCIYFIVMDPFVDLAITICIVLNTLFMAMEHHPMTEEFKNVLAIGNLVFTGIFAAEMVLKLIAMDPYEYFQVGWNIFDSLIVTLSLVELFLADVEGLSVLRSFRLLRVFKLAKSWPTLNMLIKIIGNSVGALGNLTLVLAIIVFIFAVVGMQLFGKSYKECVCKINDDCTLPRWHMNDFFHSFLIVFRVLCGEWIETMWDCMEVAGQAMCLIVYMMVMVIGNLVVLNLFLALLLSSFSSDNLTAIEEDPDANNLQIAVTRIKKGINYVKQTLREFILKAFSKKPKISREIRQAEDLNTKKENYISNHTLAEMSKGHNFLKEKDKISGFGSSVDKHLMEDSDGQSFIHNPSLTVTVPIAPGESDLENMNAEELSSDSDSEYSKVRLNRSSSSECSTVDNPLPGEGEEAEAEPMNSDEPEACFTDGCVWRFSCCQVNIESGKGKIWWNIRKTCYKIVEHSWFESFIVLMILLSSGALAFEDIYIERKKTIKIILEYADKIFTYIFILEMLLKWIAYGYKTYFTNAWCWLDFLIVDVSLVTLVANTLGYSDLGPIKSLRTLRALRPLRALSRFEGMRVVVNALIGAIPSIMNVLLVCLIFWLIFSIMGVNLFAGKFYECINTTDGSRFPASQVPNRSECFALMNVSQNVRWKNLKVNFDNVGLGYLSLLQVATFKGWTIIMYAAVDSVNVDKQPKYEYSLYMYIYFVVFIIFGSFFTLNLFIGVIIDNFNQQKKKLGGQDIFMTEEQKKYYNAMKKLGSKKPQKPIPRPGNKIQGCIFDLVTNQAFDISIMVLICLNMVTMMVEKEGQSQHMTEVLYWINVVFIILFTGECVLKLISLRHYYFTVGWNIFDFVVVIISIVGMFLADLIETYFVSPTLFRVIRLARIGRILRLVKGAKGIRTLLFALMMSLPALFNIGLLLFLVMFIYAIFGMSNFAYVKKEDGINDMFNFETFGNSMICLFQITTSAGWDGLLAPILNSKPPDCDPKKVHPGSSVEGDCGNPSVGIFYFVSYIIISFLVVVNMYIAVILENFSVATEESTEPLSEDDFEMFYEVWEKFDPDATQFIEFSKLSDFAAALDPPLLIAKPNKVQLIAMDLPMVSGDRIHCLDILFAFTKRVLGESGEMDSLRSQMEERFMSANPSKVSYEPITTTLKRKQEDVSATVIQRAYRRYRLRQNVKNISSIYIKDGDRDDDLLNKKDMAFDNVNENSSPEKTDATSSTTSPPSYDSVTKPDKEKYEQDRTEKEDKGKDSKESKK
T1 sequence (Q07699 19-218 partner): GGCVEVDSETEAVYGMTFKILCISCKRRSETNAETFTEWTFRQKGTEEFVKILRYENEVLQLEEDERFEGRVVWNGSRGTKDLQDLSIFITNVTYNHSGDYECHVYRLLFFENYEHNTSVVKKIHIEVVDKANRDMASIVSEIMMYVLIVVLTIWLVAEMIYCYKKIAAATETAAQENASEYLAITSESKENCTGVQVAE
The experiment in a line: Tritiated compound competitive binding to membranes from cells heterologously expressing hNav1.7 and the β1 subunit (LBA). The note with it: competition with 100 pM [3H]compound, 18 h, room temperature; IC50 by 4 parameter logistic model. Summed up: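 Membranes were incubated 18 h at room temperature with 100 pM [3H]-labelled NaV1.7 inhibitor and increasing test compound in 100 mM NaCl, 20 mM Tris HCl, pH 7.4. Bound radioligand was filtered on PEI-soaked GF/C, washed, and counted by scintillation. IC50 from a 4-parameter logistic fit of % inhibition.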
For the compound `O=S(=O)(Nc1ncns1)c1cc(F)c(CN2CC[C@@H](O)C[C@H]2c2ccccc2)cc1F` [Example 114, 2,5-Difluoro-4-(((2S,4R)-4-hydroxy-2-phenylpiperidin-1-yl)methyl)-N-(1,2,4-thiadiazol-5-yl)benzenesulfonamide], the “Nav1.7 (LBA)” value was determined as 9.65 µM.
Take `O=S(=O)(Nc1ncns1)c1ccc2c(c1)OCC[C@@H]2N1CC[C@@H](C(F)F)C[C@H]1c1ccc(F)cc1` [Example 186, (S)-4-((2S,4R)-4-(difluoromethyl)-2-(4-fluorophenyl)piperidin-1-yl)-N-(1,2,4-thiadiazol-5-yl)chroman-7-sulfonamide]: the “Nav1.7 (LBA)” value worked out at 0.00214 µM.
The same measure for `O=S(=O)(Nc1ncns1)c1ccc2c(c1)OCC[C@@H]2N1CCN(S(=O)(=O)C(F)(F)F)C[C@H]1c1ccc(F)cc1` [Example 225, (S)-4-((R)-2-(4-fluorophenyl)-4-((trifluoromethyl)sulfonyl)piperazin-1-yl)-N-(1,2,4-thiadiazol-5-yl)chromane-7-sulfonamide]: 0.0057 µM; for `O=S(=O)(Nc1ncns1)c1ccc2c(c1)OCC[C@@H]2N1CCc2ccccc2[C@H]1c1ccccc1` (single isomer, unassigned) [Example 80]: 0.142 µM.
Take `O=S(=O)(Nc1ncns1)c1cc(F)c(CN2CC[C@@H](OC(F)(F)F)C[C@H]2c2ccccc2)cc1F` (single isomer, unassigned) [Example 111]: the “Nav1.7 (LBA)” value is 0.0923 µM.
Take `O=S(=O)(Nc1nccs1)c1cc2c(cc1F)[C@H](N1CC[C@@H](C(F)(F)F)C[C@H]1c1ccccn1)CCO2` [Example 190, (R)-6-fluoro-4-((2S,4R)-2-(pyridin-2-yl)-4-(trifluoromethyl)piperidin-1-yl)-N-(thiazol-2-yl)chroman-7-sulfonamide]: the “Nav1.7 (LBA)” value is 0.0448 µM.
Consider `O=S(=O)(Nc1ncns1)c1ccc2c(c1)OCC[C@@H]2N1CCCC[C@H]1C1CCCCC1` (single isomer, unassigned) [Example 155], for which the “Nav1.7 (LBA)” value stood at 4.35 µM.
The same measure for `O=S(=O)(Nc1ncns1)c1ccc2c(c1)OCC[C@@H]2N1CCCC[C@@H]1C1CCCCC1` (single isomer, unassigned) [Example 156]: 0.907 µM.
Consider `C[C@H](c1ccc(S(=O)(=O)Nc2ncns2)cc1Cl)N1CCCC[C@@H]1c1ccccc1` (single isomer, unassigned) [Example 60], for which the “Nav1.7 (LBA)” value was 0.33 µM.
The same measure for `O=S(=O)(Nc1ncns1)c1cc(F)c(CN2CCCC[C@H]2c2ccn[nH]2)cc1F` (single isomer, unassigned) [Example 27]: 0.118 µM; for `Cc1cc([C@@H]2C[C@H](C(F)(F)F)CCN2[C@H]2CCOc3cc(S(=O)(=O)Nc4ncns4)ccc32)n(C)n1` [Example 203, (S)-4-((2S,4R)-2-(1,3-dimethyl-1H-pyrazol-5-yl)-4-(trifluoromethyl)piperidin-1-yl)-N-(1,2,4-thiadiazol-5-yl)chroman-7-sulfonamide]: 0.00824 µM; for `O=S(=O)(Nc1ncns1)c1ccc2c(c1)OCC[C@@H]2N1CC[C@@H](C(F)(F)F)C[C@@H]1c1ccc(F)c(F)c1` [Example 107, (S)-4-((2R,4R)-2-(3,4-difluorophenyl)-4-(trifluoromethyl)piperidin-1-yl)-N-(1,2,4-thiadiazol-5-yl)chroman-7-sulfonamide]: 2.0 µM.
On to `CC(C)[C@H]1CCN([C@@H]2CCOc3cc(S(=O)(=O)Nc4ncns4)ccc32)[C@@H](c2ccccc2)C1` (single isomer, unassigned) [Example 130], for which the “Nav1.7 (LBA)” value was found to be 0.109 µM.
Regarding `Cn1nccc1[C@H]1CCCCN1[C@H]1CCOc2cc(S(=O)(=O)Nc3ncns3)ccc21` [Example 42, (S)-4-((R)-2-(1-methyl-1H-pyrazol-5-yl)piperidin-1-yl)-N-(1,2,4-thiadiazol-5-yl)chromane-7-sulfonamide], the “Nav1.7 (LBA)” value was 0.142 µM.
On to `O=S(=O)(Nc1ncns1)c1ccc2c(c1)OCC[C@@H]2N1CCN(CC(F)F)C[C@H]1c1ccc(F)cc1` [Example 222, (S)-4-((R)-4-(2,2-difluoroethyl)-2-(4-fluorophenyl)piperazin-1-yl)-N-(1,2,4-thiadiazol-5-yl)chromane-7-sulfonamide], for which the “Nav1.7 (LBA)” value was determined as 0.0262 µM.
In the case of `Cn1nccc1[C@@H]1CCCCN1Cc1cc(F)c(S(=O)(=O)Nc2ncns2)cc1F` (single isomer, unassigned) [Example 15], the “Nav1.7 (LBA)” value turned out to be 9.36 µM.
On to `C[C@H]1CCN(Cc2cc(F)c(S(=O)(=O)Nc3ncns3)cc2F)[C@@H](c2ccccc2)C1` (single isomer, unassigned) [Example 7], for which the “Nav1.7 (LBA)” value was 4.23 µM.
Take `O=S(=O)(Nc1ncns1)c1ccc2c(c1)OCC[C@H]2N1CC[C@H](CF)C[C@@H]1c1ccc(F)cc1` [Example 184, (R)-4-((2R,4S)-4-(fluoromethyl)-2-(4-fluorophenyl)piperidin-1-yl)-N-(1,2,4-thiadiazol-5-yl)chroman-7-sulfonamide]: the “Nav1.7 (LBA)” value is 0.132 µM.
The same measure for `O=S(=O)(Nc1ncns1)c1ccc2c(c1)OCC[C@H]2N1CCc2ccccc2[C@H]1c1ccccc1` (single isomer, unassigned) [Example 81]: 0.435 µM; for `O=S(=O)(Nc1ncccn1)c1cc2c(cc1F)[C@H](N1CCCC[C@H]1c1ccccc1)CCO2` (single isomer, unassigned) [Example 95]: 1.54 µM; for `O=S(=O)(Nc1ncns1)c1ccc2c(c1)OCC[C@@H]2N1CC[C@H](OC(F)(F)F)C[C@@H]1c1ccc(F)cc1` [Example 175, (S)-4-((2R,4S)-2-(4-fluorophenyl)-4-(trifluoromethoxy)piperidin-1-yl)-N-(1,2,4-thiadiazol-5-yl)chroman-7-sulfonamide]: 0.00305 µM.
`CC1(C)CCN(Cc2cc(F)c(S(=O)(=O)Nc3ncns3)cc2F)[C@@H](c2ccccc2)C1` (single isomer, unassigned) [Example 3]: the “Nav1.7 (LBA)” value stood at 9.28 µM.
In the case of `N#C[C@H]1CCN([C@@H]2CCOc3cc(S(=O)(=O)Nc4ncns4)ccc32)[C@@H](c2ccc(F)cc2)C1` [Example 180, (R)-4-((2R,4S)-4-cyano-2-(4-fluorophenyl)piperidin-1-yl)-N-(1,2,4-thiadiazol-5-yl)chroman-7-sulfonamide], the “Nav1.7 (LBA)” value stood at 0.158 µM.
`O=S(=O)(Nc1ncns1)c1ccc2c(c1)OCC[C@@H]2N1CCC(C(F)(F)F)CC1` [Example 44, (S)—N-(1,2,4-thiadiazol-5-yl)-4-(4-(trifluoromethyl)piperidin-1-yl)chromane-7-sulfonamide]: the “Nav1.7 (LBA)” value was 0.551 µM.
On to `O=S(=O)(Nc1nccs1)c1ccc2c(c1)OCC[C@@H]2N1CCCC[C@@H]1c1ccc(F)cc1` (single isomer, unassigned) [Example 100], for which the “Nav1.7 (LBA)” value turned out to be 0.0221 µM.
As for `C[C@H]1CCCN(Cc2cc(F)c(S(=O)(=O)Nc3ncns3)cc2F)[C@H]1c1ccccc1` (single isomer, unassigned) [Example 22], the “Nav1.7 (LBA)” value amounted to 1.55 µM.
The same measure for `CS(=O)(=O)[C@@H]1CCN([C@@H]2CCOc3cc(S(=O)(=O)Nc4nccs4)c(F)cc32)[C@H](c2ccc(F)cc2)C1` [Example 165, (R)-6-fluoro-4-((2S,4R)-2-(4-fluorophenyl)-4-(methylsulfonyl)piperidin-1-yl)-N-(thiazol-2-yl)chroman-7-sulfonamide]: 1.01 µM.
Consider `O=S(=O)(Nc1ncns1)c1ccc2c(c1)OCC[C@@H]2N1CCCC[C@@H]1c1ccc(F)cc1` (single isomer, unassigned) [Example 78], for which the “Nav1.7 (LBA)” value was 0.679 µM.
For the compound `O=S(=O)(Nc1nncs1)c1cc2c(cc1F)[C@@H](N1CC[C@@H](C(F)(F)F)C[C@H]1c1ccc(F)cc1)CCO2` [Example 231, (S)-6-fluoro-4-((2S,4R)-2-(4-fluorophenyl)-4-(trifluoromethyl)piperidin-1-yl)-N-(1,3,4-thiadiazol-2-yl)chroman-7-sulfonamide], the “Nav1.7 (LBA)” value was 0.00495 µM.
